# Experimental data taken from patent publication US6737383B1, “Herbicidal oxadiazolidines” (priority 1999, dated 2004).
# Tests used:
# bedstraw = assay: Test B pre/postemergence bedstraw; format: in vivo, Galium aparine; details: Preemergence
# In short: (§1)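 Herbicidal effect was estimated by eye on a ten-point control scale after plants spent twelve to sixteen days in a greenhouse following soil or foliar treatment. Foliar sprays targeted plants at one to four leaves; all doses were formulated in a non-phytotoxic solvent with surfactant.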
# blackgrass = assay: Test B pre/postemergence blackgrass; format: in vivo, Alopecurus myosuroides; details: for Plant response rating, Blackgrass: scale of 0 to 10 where 0 is no effect and 10 is complete control
# In short: as §1
# surinam grass = assay: Test B pre/postemergence surinam grass; format: in vivo, Brachiaria decumbens; details: for Plant response rating, B. signalgrass: scale of 0 to 10 where 0 is no effect and 10 is complete control
# In short: as §1
# cocklebur = assay: Test B pre/postemergence cocklebur; format: in vivo, Xanthium strumarium; details: for Plant response rating, Cocklebur: scale of 0 to 10 where 0 is no effect and 10 is complete control
# In short: as §1
# corn = assay: Test B pre/postemergence corn; format: in vivo, Zea mays; details: for Plant response rating, Corn: scale of 0 to 10 where 0 is no effect and 10 is complete control
# In short: as §1
# crabgrass = assay: Test B pre/postemergence crabgrass; format: in vivo, Digitaria sanguinalis; details: for Plant response rating, Crabgrass: scale of 0 to 10 where 0 is no effect and 10 is complete control
# In short: as §1
# giant foxtail = assay: Test B pre/postemergence giant foxtail; format: in vivo, Setaria faberii; details: for Plant response rating, Giant foxtail: scale of 0 to 10 where 0 is no effect and 10 is complete control
# In short: as §1
# morningglory = assay: Test B pre/postemergence morningglory; format: in vivo, Ipomoea hederacea; details: for Plant response rating, Morningglory: scale of 0 to 10 where 0 is no effect and 10 is complete control
# In short: as §1
# pigweed = assay: Test B pre/postemergence pigweed; format: in vivo, Amaranthus retroflexus; details: for Plant response rating, Redroot pigweed: scale of 0 to 10 where 0 is no effect and 10 is complete control
# In short: as §1
# rape = assay: Test B pre/postemergence rape; format: in vivo, Brassica napus; details: for Plant response rating, Rape: scale of 0 to 10 where 0 is no effect and 10 is complete control
# In short: as §1
# soybean = assay: Test B pre/postemergence soybean; format: in vivo, Glycine max; details: for Plant response rating, Soybean: scale of 0 to 10 where 0 is no effect and 10 is complete control
# In short: as §1
# sugar beet = assay: Test B pre/postemergence sugar beet; format: in vivo, Beta vulgaris; details: for Plant response rating, Sugarbeets: scale of 0 to 10 where 0 is no effect and 10 is complete control
# In short: as §1
# velvetleaf = assay: Test B pre/postemergence velvetleaf; format: in vivo, Abutilon theophrasti; details: for Velvetleaf plant response rating: Rate 125 g/ha, scale 0 to 10, 0 is no effect, 10 is complete control; for Plant response rating, Velvetleaf: scale of 0 to 10 where 0 is no effect and 10 is complete control
# In short: as §1
# wheat = assay: Test B pre/postemergence wheat; format: in vivo, Triticum aestivum; details: for Plant response rating, Wheat: scale of 0 to 10 where 0 is no effect and 10 is complete control
# In short: as §1
# wild oat = assay: Test B pre/postemergence wild oat; format: in vivo, Avena fatua; details: for Plant response rating, Wild oats: scale of 0 to 10 where 0 is no effect and 10 is complete control
# In short: as §1
# purple nutsedge = assay: Test B pre/postemergence purple nutsedge; format: in vivo, Cyperus rotundus
# In short: as §1
# [1] = Postemergence, Rate 31 g/ha, visual rating, scale 0 to 10 (0 no effect, 10 complete control)
# [2] = Postemergence, Rate 62 g/ha, scale of 0 to 10, 0 is no effect, 10 is complete control
# [3] = Postemergence, Rate 125 g/ha, scale 0 to 10, 0 is no effect, 10 is complete control
# [4] = Preemergence, Rate 31 g/ha, visual rating, scale 0 to 10 (0 no effect, 10 complete control)
# [5] = Preemergence, Rate 125 g/ha, scale 0 to 10, 0 is no effect, 10 is complete control
smiles,measurement,setting,value
CC(C)N(C(=O)n1oc(=O)n(C[Si](C)(C)C)c1=O)c1ccc(F)cc1F [Compound 518],Bedstraw plant response rating,"bedstraw; Rate 31 g/ha, visual rating, scale 0 to 10 (0 no effect, 10 complete control)",0
same,"Plant response rating, Bedstraw","bedstraw; Rate 62 g/ha, scale of 0 to 10 where 0 is no effect and 10 is complete control",0
same,Bedstraw plant response rating,"bedstraw; Rate 125 g/ha, scale 0 to 10, 0 is no effect, 10 is complete control",0
same,Bedstraw plant response rating (0 to 10 scale),bedstraw; Rate 250 g/ha,0
same,Blackgrass plant response rating,blackgrass; [1],4
same,Blackgrass plant response rating,blackgrass; [2],4
same,Blackgrass plant response rating,blackgrass; [3],7
same,Blackgrass plant response rating,blackgrass; [4],4
same,"Plant response rating, Blackgrass","blackgrass; Preemergence, Rate 62 g/ha",7
same,Blackgrass plant response rating,blackgrass; [5],8
same,Blackgrass plant response rating (0 to 10 scale),"blackgrass; Preemergence, Rate 250 g/ha",7
same,"Plant response rating, Blackgrass","blackgrass; Rate 250 g/ha, Postemergence",7
same,B. signalgrass plant response rating,surinam grass; [1],3
same,B. signalgrass plant response rating,surinam grass; [3],7
same,B. signalgrass plant response rating,surinam grass; [4],0
same,"Plant response rating, B. signalgrass","surinam grass; Preemergence, Rate 62 g/ha",0
same,B. signalgrass plant response rating,surinam grass; [5],3
same,"B. signalgrass plant response rating (0 to 10 scale, 0 is no effect, 10 is complete control)","surinam grass; Preemergence, Rate 250 g/ha",10
same,"Plant response rating, B. signalgrass","surinam grass; Rate 250 g/ha, Postemergence",7
same,Cocklebur plant response rating,cocklebur; [1],0
same,Cocklebur plant response rating,cocklebur; [2],0
same,Cocklebur plant response rating,cocklebur; [3],0
same,Cocklebur plant response rating,cocklebur; [4],0
same,"Plant response rating, Cocklebur","cocklebur; Preemergence, Rate 62 g/ha",0
same,Cocklebur plant response rating,cocklebur; [5],0
same,Cocklebur plant response rating (0 to 10 scale),"cocklebur; Preemergence, Rate 250 g/ha",0
same,"Plant response rating, Cocklebur","cocklebur; Rate 250 g/ha, Postemergence",0
same,Corn plant response rating,corn; [1],0
same,Corn plant response rating,corn; [2],0
same,Corn plant response rating,corn; [3],0
same,Corn plant response rating,corn; [4],0
same,"Plant response rating, Corn","corn; Preemergence, Rate 62 g/ha",0
same,Corn plant response rating,corn; [5],0
same,Corn plant response rating (0 to 10 scale),"corn; Preemergence, Rate 250 g/ha",0
same,"Plant response rating, Corn","corn; Rate 250 g/ha, Postemergence",0
same,Crabgrass plant response rating,crabgrass; [1],0
same,Crabgrass plant response rating,crabgrass; [2],0
same,Crabgrass plant response rating,crabgrass; [3],2
same,Crabgrass plant response rating,crabgrass; [4],0
same,"Plant response rating, Crabgrass","crabgrass; Preemergence, Rate 62 g/ha",0
same,Crabgrass plant response rating,crabgrass; [5],0
same,Crabgrass plant response rating (0 to 10 scale),"crabgrass; Preemergence, Rate 250 g/ha",0
same,"Plant response rating, Crabgrass","crabgrass; Rate 250 g/ha, Postemergence",10
same,Giant foxtail plant response rating,giant foxtail; [1],0
same,Giant foxtail plant response rating,giant foxtail; [2],0
same,Giant foxtail plant response rating,giant foxtail; [3],0
same,Giant foxtail plant response rating,giant foxtail; [4],0
same,"Plant response rating, Giant foxtail","giant foxtail; Preemergence, Rate 62 g/ha",0
same,Giant foxtail plant response rating,giant foxtail; [5],0
same,Giant foxtail plant response rating (0 to 10 scale),"giant foxtail; Preemergence, Rate 250 g/ha",0
same,"Plant response rating, Giant foxtail","giant foxtail; Rate 250 g/ha, Postemergence",2
same,Morningglory plant response rating,morningglory; [1],5
same,Morningglory plant response rating,morningglory; [2],5
same,Morningglory plant response rating,morningglory; [3],5
same,"Plant response rating, Morningglory","morningglory; Preemergence, Rate 62 g/ha",0
same,Morningglory plant response rating,morningglory; [5],0
same,Morningglory plant response rating (0 to 10 scale),"morningglory; Preemergence, Rate 250 g/ha",0
same,"Plant response rating, Morningglory","morningglory; Rate 250 g/ha, Postemergence",8
same,Redroot pigweed plant response rating,pigweed; [1],0
same,Redroot pigweed plant response rating,pigweed; [2],0
same,Redroot pigweed plant response rating,pigweed; [3],0
same,"Plant response rating, Redroot pigweed","pigweed; Preemergence, Rate 62 g/ha",2
same,Redroot pigweed plant response rating,pigweed; [5],2
same,Redroot pigweed plant response rating (0 to 10 scale),"pigweed; Preemergence, Rate 250 g/ha",4
same,"Plant response rating, Redroot pigweed","pigweed; Rate 250 g/ha, Postemergence",0
same,Rape plant response rating,rape; [1],0
same,Rape plant response rating,rape; [2],0
same,Rape plant response rating,rape; [3],7
same,"Plant response rating, Rape","rape; Preemergence, Rate 62 g/ha",0
same,Rape plant response rating,rape; [5],0
same,Rape plant response rating (0 to 10 scale),"rape; Preemergence, Rate 250 g/ha",0
same,"Plant response rating, Rape","rape; Rate 250 g/ha, Postemergence",7
same,Soybean plant response rating,soybean; [1],4
same,Soybean plant response rating,soybean; [2],4
same,Soybean plant response rating,soybean; [3],5
same,"Plant response rating, Soybean","soybean; Preemergence, Rate 62 g/ha",0
same,Soybean plant response rating,soybean; [5],0
same,Soybean plant response rating (0 to 10 scale),"soybean; Preemergence, Rate 250 g/ha",0
same,"Plant response rating, Soybean","soybean; Rate 250 g/ha, Postemergence",5
same,Sugarbeets plant response rating,sugar beet; [1],0
same,Sugarbeets plant response rating,sugar beet; [2],0
same,Sugarbeets plant response rating,sugar beet; [3],3
same,"Plant response rating, Sugarbeets","sugar beet; Preemergence, Rate 62 g/ha",0
same,Sugarbeets plant response rating,sugar beet; [5],2
same,Sugarbeets plant response rating (0 to 10 scale),"sugar beet; Preemergence, Rate 250 g/ha",2
same,"Plant response rating, Sugarbeets","sugar beet; Rate 250 g/ha, Postemergence",3
same,Velvetleaf plant response rating,velvetleaf; Postemergence,2
same,"Plant response rating, Velvetleaf","velvetleaf; Preemergence, Rate 62 g/ha",0
same,Velvetleaf plant response rating,velvetleaf; Preemergence,0
same,Velvetleaf plant response rating (0 to 10 scale),"velvetleaf; Preemergence, Rate 250 g/ha",0
same,"Plant response rating, Velvetleaf","velvetleaf; Rate 250 g/ha, Postemergence",4
same,Wheat plant response rating,wheat; [1],0
same,Wheat plant response rating,wheat; [2],0
same,Wheat plant response rating,wheat; [3],0
same,"Plant response rating, Wheat","wheat; Preemergence, Rate 62 g/ha",0
same,Wheat plant response rating,wheat; [5],2
same,Wheat plant response rating (0 to 10 scale),"wheat; Preemergence, Rate 250 g/ha",3
same,"Plant response rating, Wheat","wheat; Rate 250 g/ha, Postemergence",0
same,Wild oats plant response rating,wild oat; [1],0
same,Wild oats plant response rating,wild oat; [2],0
same,Wild oats plant response rating,wild oat; [3],2
same,"Plant response rating, Wild oats","wild oat; Preemergence, Rate 62 g/ha",4
same,Wild oats plant response rating,wild oat; [5],6
same,Wild oats plant response rating (0 to 10 scale),"wild oat; Preemergence, Rate 250 g/ha",8
same,"Plant response rating, Wild oats","wild oat; Rate 250 g/ha, Postemergence",2
same,Nutsedge plant response rating,purple nutsedge; [1],0
same,Nutsedge plant response rating,purple nutsedge; [2],0
same,Nutsedge plant response rating,purple nutsedge; [3],0
same,"Plant response rating, Nutsedge","purple nutsedge; Preemergence, Rate 62 g/ha, scale of 0 to 10 where 0 is no effect and 10 is complete control",0
same,Nutsedge plant response rating,purple nutsedge; [5],0
same,Nutsedge plant response rating (0 to 10 scale),"purple nutsedge; Preemergence, Rate 250 g/ha",0
